Source: US11230717B2, “Plants having increased tolerance to herbicides” (BASF SE, priority 2013, dated 2022)

Tests used:
[1] = molecular target: T1, Hordeum HPPD variant L320N (Hordeum vulgare, UniProt O48604, A164G/L320N/R146V/R147D/R148G); assay: HPPD activity assay, in vitro characterization of HPPD mutants; assay type: biochemical; details: normalized to wild-type
T1 construct: His (N); made in house; host or cells: E. coli BL21 (DE3)
Procedure: (§1) HPPD produces homogentisic acid and CO2 from 4-hydroxyphenylpyruvate (4-HPP) and O2. The activity assay for HPPD is based on the analysis of homogentisic acid by reversed phase HPLC.
(§2) The assay mixture can contain 150 mM potassium phosphate buffer pH 7.0, 50 mM L-ascorbic acid, 100 μM Catalase (Sigma-Aldrich), 1 μM FeSO4 and 0.2 units of purified HPPD enzyme in a total volume of 505 μl. 1 unit is defined as the amount of enzyme that is required to produce 1 nmol of HGA per minute at 20° C.
(§3) After a preincubation of 30 min the reaction is started by adding 4-HPP to a final concentration of 0.05 mM. The reaction is allowed to proceed for 45 min at room temperature. The reaction is stopped by the addition of 50 μl of 4.5 M phosphoric acid. The sample is filtered using a […] pore size PVDF filtration device.
(§4) 5 μl of the cleared sample is analyzed on an UPLC HSS T3 column (particle size 1.8 μm, dimensions 2,1×50 mm; Waters) by isocratic elution using 90% 20 mM NaH2PO4 pH 2.2, 10% methanol (v/v).
(§5) HGA is detected electrochemically at 750 mV (mode: DC; polarity: positive) and quantified by integrating peak areas (Empower software; Waters).
(§6) Inhibitors are dissolved in DMSO (dimethylsulfoxide) to a concentration of 0.5 mM. From this stock solution serial five-fold dilutions are prepared in DMSO, which are used in the assay. The respective inhibitor solution accounts for 1% of the assay volume. […] Activities are normalized by setting the uninhibited enzyme activity to 100%. IC50 values are calculated using non-linear regression.
(§7) Purified, mutant HPPD enzymes are obtained by the methods described above. Dose response and kinetic measurements are carried out using the described HPPD activity assay. Apparent michaelis constants (Km) and maximal reaction velocities (Vmax) are calculated by non-linear regression with the software GraphPad Prism 5 (GraphPad Software, La Jolla, USA) using a substrate inhibition model. […] Weighted means (by standard error) of Km and IC50 values are calculated from at least three independent experiments.
(§8) Field performance of the optimized HPPD enzyme, which is used as a herbicide tolerance trait may depend not only on its lack of sensitivity towards HPPD inhibiting herbicides but also on its activity. To assess the potential performance of a herbicide tolerance trait a tolerance index (TI) is calculated using the following formula: […]

[2] = molecular target: T2, Hordeum HPPD variant L353M, P321R, L320Q (Hordeum vulgare, UniProt O48604, L320Q/L353M/P321R); assay: as above; assay type: biochemical; details: normalized to wild-type
T2 construct: His (N); made in house; host or cells: E. coli BL21 (DE3)
T2 sequence (O48604 whole entry R146V/R147D/R148G/A164G/L320Q/P321R/L353M): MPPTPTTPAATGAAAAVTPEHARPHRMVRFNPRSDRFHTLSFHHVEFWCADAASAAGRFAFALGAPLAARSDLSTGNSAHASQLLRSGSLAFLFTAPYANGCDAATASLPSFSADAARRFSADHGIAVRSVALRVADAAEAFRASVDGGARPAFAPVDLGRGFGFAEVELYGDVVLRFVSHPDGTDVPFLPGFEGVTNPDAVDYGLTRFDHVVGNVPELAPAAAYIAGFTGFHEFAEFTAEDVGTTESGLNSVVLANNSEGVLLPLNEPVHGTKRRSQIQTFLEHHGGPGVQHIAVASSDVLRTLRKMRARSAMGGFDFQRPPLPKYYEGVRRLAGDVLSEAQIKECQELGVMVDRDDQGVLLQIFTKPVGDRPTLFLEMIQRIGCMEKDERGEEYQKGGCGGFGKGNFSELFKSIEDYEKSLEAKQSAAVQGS
Procedure: as §1, §2, §3, §4, §5, §6, §7, §8

T1 sequence (O48604 whole entry R146V/R147D/R148G/A164G/L320N): as the sequence (O48604 whole entry R146V/R147D/R148G/A164G/L320Q/P321R/L353M) above, with Q320N, R321P, M353L counted along it

Cn1nnnc1NC(=O)c1c(F)cc(Cl)c(S(C)(=O)=O)c1Cl [Inhibitor 1, 2,4-dichloro-6-fluoro-3-methylsulfonyl-N-(1-methyltetrazol-5-yl)benzamide]
Normalized tolerance index (TI) [1]: 5.2
Normalized tolerance index (TI) [2]: 2.5
